Test results reported in PubChem BioAssay (NCI).
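All cell lines were grown in 96-well plates and treated with compound for 48 hours. TGI marks complete inhibition of growth.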

Tests used:
Assay in all cases: NCI-60 cell line screen, 48 h
786-0 renal = system: 786-0 renal
A498 renal = system: A498 renal
A549 NSCLC = system: A549 NSCLC
ACHN renal = system: ACHN renal
CAKI-1 renal = system: CAKI-1 renal
CCRF-CEM leukemia = system: CCRF-CEM leukemia
COLO 205 colon = system: COLO 205 colon
DLD-1 colon = system: DLD-1 colon
DMS 114 small cell lung = system: DMS 114 small cell lung
DMS 273 small cell lung = system: DMS 273 small cell lung
EKVX NSCLC = system: EKVX NSCLC
HCC-2998 colon = system: HCC-2998 colon
HCT-116 colon = system: HCT-116 colon
HCT-15 colon = system: HCT-15 colon
HL-60(TB) leukemia = system: HL-60(TB) leukemia
HOP-18 NSCLC = system: HOP-18 NSCLC
HOP-62 NSCLC = system: HOP-62 NSCLC
HOP-92 NSCLC = system: HOP-92 NSCLC
HT29 colon = system: HT29 colon
IGROV1 ovarian = system: IGROV1 ovarian
K-562 leukemia = system: K-562 leukemia
KM12 colon = system: KM12 colon
KM20L2 colon = system: KM20L2 colon
LOX IMVI melanoma = system: LOX IMVI melanoma
LXFL 529 NSCLC = system: LXFL 529 NSCLC
M14 melanoma = system: M14 melanoma
M19-MEL melanoma = system: M19-MEL melanoma
MALME-3M melanoma = system: MALME-3M melanoma
MOLT-4 leukemia = system: MOLT-4 leukemia
NCI-H23 lung = system: NCI-H23 lung
NCI-H460 lung = system: NCI-H460 lung
NCI-H522 lung = system: NCI-H522 lung
OVCAR-3 ovarian = system: OVCAR-3 ovarian
OVCAR-4 ovarian = system: OVCAR-4 ovarian
OVCAR-5 ovarian = system: OVCAR-5 ovarian
OVCAR-8 ovarian = system: OVCAR-8 ovarian
RPMI-8226 leukemia = system: RPMI-8226 leukemia
RXF 393 renal = system: RXF 393 renal
RXF-631 renal = system: RXF-631 renal
SF-268 CNS = system: SF-268 CNS
SF-295 CNS = system: SF-295 CNS
SF-539 CNS = system: SF-539 CNS
SK-MEL-2 melanoma = system: SK-MEL-2 melanoma
SK-MEL-28 melanoma = system: SK-MEL-28 melanoma
SK-MEL-5 melanoma = system: SK-MEL-5 melanoma
SK-OV-3 ovarian = system: SK-OV-3 ovarian
SN12C renal = system: SN12C renal
SNB-19 CNS = system: SNB-19 CNS
SNB-75 CNS = system: SNB-75 CNS
SNB-78 CNS = system: SNB-78 CNS
SR leukemia = system: SR leukemia
SW-620 colon = system: SW-620 colon
TK-10 renal = system: TK-10 renal
U251 CNS = system: U251 CNS
UACC-257 melanoma = system: UACC-257 melanoma
UACC-62 melanoma = system: UACC-62 melanoma
UO-31 renal = system: UO-31 renal
XF 498 CNS = system: XF 498 CNS
BT-549 breast = system: BT-549 breast
DU-145 prostate = system: DU-145 prostate
HS 578T breast = system: HS 578T breast
MCF7 breast = system: MCF7 breast
MDA-MB-231 breast = system: MDA-MB-231 breast
MDA-MB-435 = system: MDA-MB-435
MDA-N = system: MDA-N
NCI-H226 lung = system: NCI-H226 lung
NCI/ADR-RES ovarian = system: NCI/ADR-RES ovarian
PC-3 prostate = system: PC-3 prostate
T-47D breast = system: T-47D breast

O=[N+]([O-])c1ccc(-c2csc(=[N+]3CCCCC3)s2)cc1
TGI (786-0 renal): > 100 µM
TGI (A498 renal): 63.6 µM
TGI (A549 NSCLC): > 100 µM
TGI (ACHN renal): > 100 µM
TGI (CAKI-1 renal): > 100 µM
TGI (CCRF-CEM leukemia): > 100 µM
TGI (COLO 205 colon): 5.58 µM
TGI (DLD-1 colon): > 100 µM
TGI (DMS 114 small cell lung): 8.03 µM
TGI (DMS 273 small cell lung): > 100 µM
TGI (EKVX NSCLC): > 100 µM
TGI (HCC-2998 colon): > 100 µM
TGI (HCT-116 colon): > 100 µM
TGI (HCT-15 colon): > 100 µM
TGI (HL-60(TB) leukemia): > 86.6 µM
TGI (HOP-18 NSCLC): > 100 µM
TGI (HOP-62 NSCLC): 11.6 µM
TGI (HOP-92 NSCLC): 64.9 µM
TGI (HT29 colon): > 100 µM
TGI (IGROV1 ovarian): > 100 µM
TGI (K-562 leukemia): > 100 µM
TGI (KM12 colon): > 100 µM
TGI (KM20L2 colon): > 100 µM
TGI (LOX IMVI melanoma): > 100 µM
TGI (LXFL 529 NSCLC): > 100 µM
TGI (M14 melanoma): > 100 µM
TGI (M19-MEL melanoma): > 45.9 µM
TGI (MALME-3M melanoma): 32.1 µM
TGI (MOLT-4 leukemia): > 60.9 µM
TGI (NCI-H23 lung): 22.8 µM
TGI (NCI-H460 lung): > 100 µM
TGI (NCI-H522 lung): 18.3 µM
TGI (OVCAR-3 ovarian): > 100 µM
TGI (OVCAR-4 ovarian): 81.4 µM
TGI (OVCAR-5 ovarian): 62.6 µM
TGI (OVCAR-8 ovarian): > 100 µM
TGI (RPMI-8226 leukemia): > 100 µM
TGI (RXF 393 renal): > 100 µM
TGI (RXF-631 renal): > 100 µM
TGI (SF-268 CNS): > 100 µM
TGI (SF-295 CNS): > 62.5 µM
TGI (SF-539 CNS): > 100 µM
TGI (SK-MEL-2 melanoma): 60.2 µM
TGI (SK-MEL-28 melanoma): > 100 µM
TGI (SK-MEL-5 melanoma): 17.8 µM
TGI (SK-OV-3 ovarian): > 100 µM
TGI (SN12C renal): > 100 µM
TGI (SNB-19 CNS): > 100 µM
TGI (SNB-75 CNS): > 26.5 µM
TGI (SNB-78 CNS): > 100 µM
TGI (SR leukemia): > 83.3 µM
TGI (SW-620 colon): > 100 µM
TGI (TK-10 renal): > 100 µM
TGI (U251 CNS): > 20.8 µM
TGI (UACC-257 melanoma): 31.4 µM
TGI (UACC-62 melanoma): > 100 µM
TGI (UO-31 renal): > 100 µM
TGI (XF 498 CNS): 48.1 µM

N#Cc1cccc(N2C(=O)C3C4C=CC(C3C2=O)C2C(=O)N(c3cccc(C#N)c3)C(=O)C42)c1 (stereo not drawn)
TGI (786-0 renal): > 63.1 µM
TGI (A498 renal): 42 µM
TGI (A549 NSCLC): > 63.1 µM
TGI (ACHN renal): 55.2 µM
TGI (BT-549 breast): 72.1 µM
TGI (CAKI-1 renal): > 87 µM
TGI (CCRF-CEM leukemia): 53.7 µM
TGI (COLO 205 colon): > 63.1 µM
TGI (DLD-1 colon): > 46.4 µM
TGI (DMS 114 small cell lung): 42 µM
TGI (DMS 273 small cell lung): > 31.6 µM
TGI (DU-145 prostate): > 100 µM
TGI (EKVX NSCLC): > 100 µM
TGI (HCC-2998 colon): > 56.2 µM
TGI (HCT-116 colon): 31.6 µM
TGI (HCT-15 colon): > 63.1 µM
TGI (HL-60(TB) leukemia): > 100 µM
TGI (HOP-18 NSCLC): > 100 µM
TGI (HOP-62 NSCLC): 38.1 µM
TGI (HOP-92 NSCLC): 31.6 µM
TGI (HS 578T breast): > 95.5 µM
TGI (HT29 colon): > 63.1 µM
TGI (IGROV1 ovarian): 49.2 µM
TGI (K-562 leukemia): 55.8 µM
TGI (KM12 colon): > 56.2 µM
TGI (KM20L2 colon): > 100 µM
TGI (LOX IMVI melanoma): > 63.1 µM
TGI (LXFL 529 NSCLC): > 46.4 µM
TGI (M14 melanoma): > 63.1 µM
TGI (MALME-3M melanoma): 99.4 µM
TGI (MCF7 breast): > 100 µM
TGI (MDA-MB-231 breast): > 100 µM
TGI (MDA-MB-435): > 100 µM
TGI (MDA-N): > 100 µM
TGI (MOLT-4 leukemia): 50.2 µM
TGI (NCI-H226 lung): > 63.1 µM
TGI (NCI-H23 lung): 52.5 µM
TGI (NCI-H460 lung): > 63.1 µM
TGI (NCI-H522 lung): 38.2 µM
TGI (NCI/ADR-RES ovarian): > 100 µM
TGI (OVCAR-3 ovarian): > 100 µM
TGI (OVCAR-4 ovarian): > 63.1 µM
TGI (OVCAR-5 ovarian): > 63.1 µM
TGI (OVCAR-8 ovarian): > 63.1 µM
TGI (PC-3 prostate): > 100 µM
TGI (RPMI-8226 leukemia): > 56.2 µM
TGI (RXF 393 renal): 22.9 µM
TGI (RXF-631 renal): 42.9 µM
TGI (SF-268 CNS): 49.7 µM
TGI (SF-295 CNS): 36.7 µM
TGI (SF-539 CNS): 61.4 µM
TGI (SK-MEL-2 melanoma): 34.7 µM
TGI (SK-MEL-28 melanoma): > 63.1 µM
TGI (SK-MEL-5 melanoma): > 63.1 µM
TGI (SK-OV-3 ovarian): 34.9 µM
TGI (SN12C renal): > 39.8 µM
TGI (SNB-19 CNS): > 80.1 µM
TGI (SNB-75 CNS): 17.6 µM
TGI (SNB-78 CNS): 33.7 µM
TGI (SR leukemia): 49.5 µM
TGI (SW-620 colon): > 100 µM
TGI (T-47D breast): > 31.6 µM
TGI (TK-10 renal): 50 µM
TGI (U251 CNS): 26.8 µM
TGI (UACC-257 melanoma): > 63.1 µM
TGI (UACC-62 melanoma): > 100 µM
TGI (UO-31 renal): 61.8 µM
TGI (XF 498 CNS): 36.2 µM

CCCCN(CCCC)CC(C(C)=O)C(c1ccccc1)c1c(O)c2ccccc2oc1=O (stereo not drawn)
TGI (786-0 renal): > 100 µM
TGI (A549 NSCLC): > 100 µM
TGI (ACHN renal): > 100 µM
TGI (CAKI-1 renal): > 100 µM
TGI (CCRF-CEM leukemia): > 100 µM
TGI (COLO 205 colon): > 100 µM
TGI (DLD-1 colon): > 100 µM
TGI (DMS 114 small cell lung): > 100 µM
TGI (DMS 273 small cell lung): > 100 µM
TGI (EKVX NSCLC): > 100 µM
TGI (HCC-2998 colon): > 100 µM
TGI (HCT-116 colon): > 100 µM
TGI (HCT-15 colon): > 100 µM
TGI (HL-60(TB) leukemia): > 100 µM
TGI (HOP-18 NSCLC): > 100 µM
TGI (HOP-62 NSCLC): > 100 µM
TGI (HOP-92 NSCLC): > 100 µM
TGI (HT29 colon): > 100 µM
TGI (IGROV1 ovarian): > 100 µM
TGI (K-562 leukemia): > 100 µM
TGI (KM12 colon): > 100 µM
TGI (KM20L2 colon): > 100 µM
TGI (LOX IMVI melanoma): > 100 µM
TGI (LXFL 529 NSCLC): > 100 µM
TGI (M14 melanoma): > 100 µM
TGI (M19-MEL melanoma): > 100 µM
TGI (MALME-3M melanoma): > 100 µM
TGI (MOLT-4 leukemia): > 100 µM
TGI (NCI-H226 lung): > 100 µM
TGI (NCI-H23 lung): > 100 µM
TGI (NCI-H460 lung): > 100 µM
TGI (NCI-H522 lung): > 100 µM
TGI (OVCAR-3 ovarian): > 100 µM
TGI (OVCAR-4 ovarian): > 100 µM
TGI (OVCAR-5 ovarian): > 100 µM
TGI (OVCAR-8 ovarian): > 100 µM
TGI (RPMI-8226 leukemia): > 100 µM
TGI (RXF 393 renal): > 100 µM
TGI (RXF-631 renal): > 100 µM
TGI (SF-268 CNS): > 100 µM
TGI (SF-295 CNS): > 100 µM
TGI (SF-539 CNS): > 100 µM
TGI (SK-MEL-2 melanoma): > 100 µM
TGI (SK-MEL-28 melanoma): > 100 µM
TGI (SK-MEL-5 melanoma): > 100 µM
TGI (SK-OV-3 ovarian): > 100 µM
TGI (SN12C renal): > 100 µM
TGI (SNB-19 CNS): > 100 µM
TGI (SNB-75 CNS): 76.3 µM
TGI (SNB-78 CNS): > 100 µM
TGI (SR leukemia): > 100 µM
TGI (SW-620 colon): > 100 µM
TGI (TK-10 renal): > 100 µM
TGI (U251 CNS): > 100 µM
TGI (UACC-257 melanoma): > 100 µM
TGI (UACC-62 melanoma): > 100 µM
TGI (XF 498 CNS): > 100 µM
